Assay results published in paper PMC9457997, “2-(Nitroaryl)-5-Substituted-1,3,4-Thiadiazole Derivatives with Antiprotozoal Activities: In Vitro and In Vivo Study” (Molecules, 2022).
pIC50: −log10 of the molar value. Values after ≈ are worked out from the molar mass of the structure shown. Like-named read-outs stand apart in the source and are kept apart here.

Legend:
[1] = test system: T. cruzi, strain Tulahuen C4 amastigotes; assay: In vitro activity against T. cruzi amastigotes; assay type: cell-based; conditions: Trypanosoma cruzi, read-out: T. cruzi IC50
Protocol: Although all of the compounds had been tested against Leishmania major promastigotes in our previous works, to deeper evaluate the antitrypanosomatid potential of the selected nitroimidazole derivatives, their activity was measured against L. donovani axenic amastigotes and T. cruzi amastigotes (Table 2). Miltefosine and benznidazole were used as reference drugs. Compounds 18a and 18g were also tested against L. donovani intracellular amastigotes in peritoneal murine macrophages in a further assay. […]. In vitro activity against the protozoan parasites T. b. rhodesiense, T.cruzi, L. donovani and cytotoxicity assessment against L6 cells were determined as reported previously. The following strains, parasite forms, and positive controls were used: T. b. rhodesiense STIB 900 bloodstream forms, melarsoprol (received from WHO, Arsobal Sanofi); T.cruzi Tulahuen C2C4 intracellular amastigotes, benznidazole (received from DNDi synthesized by Epichem Pty Ltd., Murdoch, Australia); L. donovani MHOM-ET-67/L82 axenically grown amastigotes and intracellular amastigotes, miltefosine (Sigma M5571). L6 rat skeletal myoblasts (ATCC CRL-1458), podophyllotoxin (Sigma P4405).

[2] = test system: T. b. rhodesiense; conditions: cited from earlier work
[3] = set-up: method as in PMID 29191556; conditions: cited from earlier work
[4] = test system: HAT mouse model; conditions: cited from earlier work
[5] = test system: T. b. brucei; conditions: cited from earlier work
[6] = test system: T. brucei; conditions: cited from earlier work
[7] = in vitro; conditions: rat
[8] = test system: T. b. rhodesiense, strain STIB 900 trypomastigotes; assay: In vitro activity against T. b. rhodesiense STIB 900 bloodstream forms; assay type: cell-based; conditions: Trypanosoma brucei, read-out: T. b. rhodesiense IC50
[9] = test system: L. donovani, strain MHOM-ET-67/L82 axenically grown amastigotes; assay: In vitro activity against L. donovani axenic amastigotes; assay type: cell-based; conditions: for pIC50: Leishmania donovani, strain MHOM-ET-67/L82 axenically grown amastigotes, means of two independent assays; for TDR criteria class against L. donovani amastigotes: TDR criteria for antiparasitic activity
Protocol: (§1) Miltefosine and benznidazole were used as reference drugs. […] In vitro activity against the protozoan parasites T. b. rhodesiense, T.cruzi, L. donovani and cytotoxicity assessment against L6 cells were determined as reported previously. The following strains, parasite forms, and positive controls were used: T. b. rhodesiense STIB 900 bloodstream forms, melarsoprol (received from WHO, Arsobal Sanofi); T.cruzi Tulahuen C2C4 intracellular amastigotes, benznidazole (received from DNDi synthesized by Epichem Pty Ltd., Murdoch, Australia); L. donovani MHOM-ET-67/L82 axenically grown amastigotes and intracellular amastigotes, miltefosine (Sigma M5571).

[10] = test system: L. donovani intracellular amastigotes in peritoneal murine macrophages; assay: In vitro activity against L. donovani intracellular amastigotes; assay type: cell-based; conditions: Leishmania donovani, Macrophage, means of two independent assays
Protocol: as §1

[11] = test system: T. b. rhodesiense STIB 900; assay: T. b. rhodesiense STIB 900 acute mouse model of HAT; assay type: in vivo; conditions: for Cured/Infected / Mean Survival Days (MSD): 4 × 50 mg/kg i.p., acute mouse model STIB 900
Protocol: […]. All of these compounds were administered at an intraperitoneal dose of 50 mg/kg/day for 4 days. […] A total of three of the four mice treated with morpholine derivative 18b were cured and the parasite was not found in the blood of one mouse until day 60 of infection. […] All of the mice treated with compound 18f survived 60 days, but one mouse was parasite positive. Compound 18d presented the least cure rate; a total of three mice were parasite positive and died between days 15 and 20, and one mouse survived.
The in vivo efficacy was determined in the T. b. rhodesiense STIB 900 acute mouse model that mimics the first stage of the disease as described earlier. In vivo efficacy studies in mice were conducted at the Swiss Tropical and Public Health Institute (Basel) (License number 2813), according to the rules and regulations for the protection of animal rights (“Tierschutzverordnung”) of the Swiss “Bundesamt für Veterinärwesen”. They were approved by the veterinary office of Canton Basel-Stadt, Switzerland.

[12] = test system: T. b. gambiense; conditions: gambiense HAT patients; cited from earlier work
[13] = Cytotoxicity in L6 cells; conditions: rat
[14] = read-out: IC50 against T. b. rhodesiense
[15] = read-out: IC50 against T. b. brucei
[16] = strain STIB 900 trypomastigotes (BSF form), means of two independent assays

Molecule `O=C(Cn1ccnc1[N+](=O)[O-])NCc1ccccc1` [Benznidazole, reference compound] has a pIC50 [1] of 5.84.
For `O=[N+]([O-])c1nccn1CCCNc1ccnc2c(Cl)cccc12` [Compound 2], the pIC50 [2, 14] is listed as 5.89.
For `O=[N+]([O-])c1cn2c(n1)[S+]([O-])CC(OCc1ccc(OC(F)(F)F)cc1)C2` (stereo not drawn) [Compound 3], the metabolic stability [3] is listed as “good metabolic stability” and the “cure rate in an acute infection mouse model of HAT” value [4] is listed as 100%.
In the case of `O=C1NC(c2ccccc2)=CN2C=C([N+](=O)[O-])NC12` (stereo not drawn) [Compound 5a], the pIC50 ([5]; read-out: IC50 against T. brucei brucei) is listed as 6.66.
For `O=c1c2nc([N+](=O)[O-])cn2ccn1Cc1ccc(-c2ccc(OC(F)(F)F)cc2)cn1` [Compound 6], the pIC50 [5, 15] is listed as 8.70.
In the case of `CN(C)c1nc(N/N=C/c2ccc([N+](=O)[O-])o2)nc(N(C)C)n1` [Compound 7], the pIC50 ([2]; read-out: IC50 against trypomastigotes of T. brucei rhodesiense) is listed as 8.52.
For `CCCCCCCOC(=O)N/N=C/c1ccc([N+](=O)[O-])o1` [Compound 8], the pIC50 ([6]; read-out: IC50 against the BSF form of T. brucei) is listed as 6.92.
In the case of `C=CCOc1ccc(NC(=O)c2ccc([N+](=O)[O-])o2)cc1C(F)(F)F` [Compound 9], the pIC50 [2, 14] is listed as 8.54 and the pIC50 [5, 15] is listed as 8.62.
In the case of `O=C(N/N=C\c1coc([N+](=O)[O-])c1)C12CC3CC(C1)CC(C(=O)N/N=C/c1ccc([N+](=O)[O-])o1)(C3)C2` [Compound 10], the pIC50 ([6]; read-out: IC50 against T. brucei) is given as 7.12.
In the case of `CC(C)N(CCO/N=C/c1ccc([N+](=O)[O-])s1)C(C)C` [Compound 11], the “MIC, trypanocidal activity” value [6] is given as 1 µg/mL (≈ 3.34 µM).
In the case of `O=[N+]([O-])c1ccc(-c2nnc(N3CCCCC3)s2)o1` [Compound 16a], the pIC50 [7] was 5.60 and the pIC50 [8, 16] was 6.62.
`O=[N+]([O-])c1ccc(-c2nnc(N3CCOCC3)s2)o1` [Compound 16b] gave a pIC50 [7] of 5.25 and a pIC50 [8, 16] of 6.04.
Molecule `O=[N+]([O-])c1ccc(-c2nnc(N3CCNCC3)s2)o1` [Compound 16c] has a pIC50 [7] of 5.97 and a pIC50 [8, 16] of 7.22.
Work on `CN1CCN(c2nnc(-c3ccc([N+](=O)[O-])o3)s2)CC1` [Compound 16d] yielded a pIC50 [7] of 5.87 and a pIC50 [8, 16] of 6.62.
In the case of `O=[N+]([O-])c1ccc(-c2nnc(N3CCN(c4ccccc4)CC3)s2)o1` [Compound 16e], the pIC50 [7] was 5.19 and the pIC50 [8, 16] was 6.27.
`CC(=O)N1CCN(c2nnc(-c3ccc([N+](=O)[O-])o3)s2)CC1` [Compound 16f] showed a pIC50 [7] of 5.60 and a pIC50 [8, 16] of 7.09.
Work on `O=[N+]([O-])c1ccc(-c2nnc(N3CCCCC3)s2)s1` [Compound 17a] yielded a pIC50 [7] of 3.65 and a pIC50 [8, 16] of 6.19.
`O=[N+]([O-])c1ccc(-c2nnc(N3CCOCC3)s2)s1` [Compound 17b] gave a pIC50 [7] of under 3.52 and a pIC50 [8, 16] of 5.93.
Work on `O=[N+]([O-])c1ccc(-c2nnc(N3CCNCC3)s2)s1` [Compound 17c] yielded a pIC50 [7] of 5.20 and a pIC50 [8, 16] of 6.46.
Molecule `CN1CCN(c2nnc(-c3ccc([N+](=O)[O-])s3)s2)CC1` [Compound 17d] has a pIC50 [7] of 4.39 and a pIC50 [8, 16] of 5.94.
In the case of `O=[N+]([O-])c1ccc(-c2nnc(N3CCN(c4ccccc4)CC3)s2)s1` [Compound 17e], the pIC50 [7] was 4.25 and the pIC50 [8, 16] was 4.93.
Work on `CC(=O)N1CCN(c2nnc(-c3ccc([N+](=O)[O-])s3)s2)CC1` [Compound 17f] yielded a pIC50 [7] of 3.65 and a pIC50 [8, 16] of 5.72.
`O=C(c1ccccc1)N1CCN(c2nnc(-c3ccc([N+](=O)[O-])s3)s2)CC1` [Compound 17g] gave a pIC50 [7] of 4.29 and a pIC50 [8, 16] of 6.36.
With `Cn1c([N+](=O)[O-])cnc1-c1nnc(N2CCCCC2)s1` [Compound 18a] the pIC50 [1] was 6.05, the pIC50 [9] was 6.32 and the “TDR criteria class against L. donovani amastigotes” value (shortened to “TDR criteria class”) [9] was “active”. It also gave a pIC50 [7] of under 3.51, a pIC50 [10] of 5.32 and a pIC50 [8, 16] of 6.29.
In the case of `Cn1c([N+](=O)[O-])cnc1-c1nnc(N2CCOCC2)s1` [Compound 18b], the pIC50 [1] was 6.53, the pIC50 [9] was 6.35 and the “TDR criteria class” value [9] was “active”. For the same molecule, the Cured/Infected [11] was 3/4, the “Mean Survival Days (MSD)” value [11] was over 60 days and the pIC50 [7] was 3.58. For the same molecule, the pIC50 [8, 16] was 6.84.
For `Cn1c([N+](=O)[O-])cnc1-c1nnc(N2CCNCC2)s1` [Compound 18c], the pIC50 [1] was 6.90, the pIC50 [9] was 5.49 and the death during treatment ([11]; 50 mg/kg/day i.p., mouse excluded from the experimental group) was “One mouse died on day six”. For the same molecule, the Cured/Infected [11] was 3/3, the “Mean Survival Days (MSD)” value [11] was over 60 days and the pIC50 [7] was 3.85. The pIC50 [8, 16] was 7.92.
For `CN1CCN(c2nnc(-c3ncc([N+](=O)[O-])n3C)s2)CC1` [Compound 18d], the pIC50 [1] was 6.34, the Cured/Infected [11] was 1/4 and the “Mean Survival Days (MSD)” value [11] was over 27.75 days. For the same molecule, the pIC50 [7] was under 3.54 and the pIC50 [8, 16] was 6.85.
Molecule `Cn1c([N+](=O)[O-])cnc1-c1nnc(N2CCN(c3ccccc3)CC2)s1` [Compound 18e] has a pIC50 [7] of 3.79 and a pIC50 [8, 16] of 6.55.
With `CC(=O)N1CCN(c2nnc(-c3ncc([N+](=O)[O-])n3C)s2)CC1` [Compound 18f] the pIC50 [1] was 6.33, the Cured/Infected [11] was 3/4 and the “Mean Survival Days (MSD)” value [11] was over 60 days. It also gave a pIC50 [7] of under 3.57 and a pIC50 [8, 16] of 7.05.
With `Cn1c([N+](=O)[O-])cnc1-c1nnc(N2CCN(C(=O)c3ccccc3)CC2)s1` [Compound 18g] the pIC50 [1] was 6.52, the “TDR criteria class” value [9] was “active” and the cure rate ([11]; 50 mg/kg/day i.p. for 4 days, until 60 days after infection) was 100%. The Cured/Infected [11] was 4/4 and the “Mean Survival Days (MSD)” value [11] was over 60 days.
In the case of `CSc1ccc(OCc2ncc([N+](=O)[O-])n2C)cc1` [Fexinidazole], the cure rate [12] is given as 91%.
Work on `Nc1nc(N)nc(Nc2ccc([As]3SCC(CO)S3)cc2)n1` (stereo not drawn) [Melarsoprol, reference compound] yielded a pIC50 [13] of 5.02 and a pIC50 [8] of 8.40.
In the case of `CCCCCCCCCCCCCCCCOP(=O)([O-])OCC[N+](C)(C)C` [Miltefosine, reference compound], the pIC50 [9] was 6.44 and the pIC50 [10] was 5.74.
`COc1cc([C@@H]2c3cc4c(cc3[C@H](O)[C@H]3COC(=O)[C@H]23)OCO4)cc(OC)c1OC` [Podophyllotoxin] gave a pIC50 [13] of 8.22.
